The assay concerns the target T1, Nav1.5 (Homo sapiens, UniProt Q14524, F1760A).
T1 construct: gene SCN5A

Turning to `Cc1cccc(C)c1OCC(C)N` (stereo not shown) [MEXI, mexiletine], the “whole-cell patch clamp of tsA201 cells after 24-h incubation with 100 μM; effect” value is on record as “Nav1.5-F1760A peak INa densities, on the other hand, were significantly enhanced after 24-h incubation with MEXI”.

Source of the values: PMC7618122 (American journal of physiology. Heart and circulatory …, 2025).
